Laboratory results from US5418135A, “Method of inhibiting binding of PDGF to a PDGF receptor by biosynthetic PDGF antagonists” (Creative BioMolecules, Inc., priority 1993, dated 1995).

Tested on: PDGF receptor on human foreskin fibroblasts / NIH/3T3 cells
Experiment: Inhibition assay: 3H-thymidine incorporation in cells stimulated with PDGF dimer
Assay type: cell-based
Procedure: One method includes the determination of ^3 H-thymidine incorporation in a cell which normally is induced to proliferate in the presence of PDGF, but which simultaneously is exposed to the prospective antagonist and to biologically active PDGF.
Human foreskin fibroblasts are grown from explants of newborn foreskin. NIH/3T3 cells were obtained from S. Aaronson (NCI). Cells are cultured in Dulbecco's modified Eagle's medium (DMEM) supplemented with 10% fetal bovine serum at 37° C. in an atmosphere of 10% CO2 and 90% air.
Cells are grown in 48-well plates to confluence and used for assay 3-4 days later. Different monomeric forms or fragments of PDGF monomers are added to the media, and after 18 hours 10 .xi.g PDGF AA dimer, AB dimer, or BB dimer and 2 .xi.Ci/ml ^3 H-thymidine are added. The cells are incubated an additional 2 hours and washed at 4° C. three times with phosphate-buffered saline (PBS) and five times with 5% trichloroacetic acid (TCA). TCA-insoluble materials are solubilized in 0.1N NaOH/0.1% SDS. The amount of incorporated ^3 H-thymidine is determined with a Beckman liquid scintillation counter.

## A: Intact recombinant PDGF A chain monomer from E. coli, Cys residues pyridylethylated to prevent dimerization
PDGF BB dimer as stimulus
  inhibition of the proliferative effect of BB dimer (in words): inhibit the proliferative effect of BB dimer
Inhibition of PDGF dimer-induced 3H-thymidine incorporation, antagonist added 18 hours before PDGF dimer and 3H-thymidine, read-out: HALF-MAX INHIBITION
  IC50: 0.1 µM
